Experimental findings from ChEMBL document CHEMBL1158406, “Design of novel quinazoline derivatives and related analogues as potent and selective ALK5 inhibitors” (Bioorg Med Chem Lett, 2009) are described below.

Data set [1] concerns the target Mitogen-activated protein kinase 14 (Homo sapiens, UniProt Q16539). As to the kind of experiment: Inhibition of GST-fused p38alpha.
Data set [2] concerns the target T1, TGF-beta receptor type-1 (Homo sapiens, UniProt P36897).
T1 sequence (P36897 whole entry): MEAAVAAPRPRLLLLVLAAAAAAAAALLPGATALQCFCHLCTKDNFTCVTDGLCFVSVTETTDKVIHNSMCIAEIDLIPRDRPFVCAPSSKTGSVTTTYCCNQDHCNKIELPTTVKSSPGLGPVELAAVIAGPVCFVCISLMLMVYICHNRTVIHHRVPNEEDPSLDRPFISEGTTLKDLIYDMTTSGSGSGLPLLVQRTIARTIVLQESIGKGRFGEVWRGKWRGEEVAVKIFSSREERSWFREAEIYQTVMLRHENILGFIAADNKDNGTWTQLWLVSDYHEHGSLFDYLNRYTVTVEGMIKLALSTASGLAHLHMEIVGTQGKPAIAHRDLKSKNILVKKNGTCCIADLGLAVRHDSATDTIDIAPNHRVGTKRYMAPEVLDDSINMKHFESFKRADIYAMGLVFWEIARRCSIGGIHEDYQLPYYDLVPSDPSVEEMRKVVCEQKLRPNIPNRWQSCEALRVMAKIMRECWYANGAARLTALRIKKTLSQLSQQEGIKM
The data set is described as follows: Inhibition of human ALK5 kinase expressed in Sf9 cells.

The target in data set [3] is T1, TGF-beta receptor type-1. The data set is described as follows: Inhibition of TGF-beta-induced ALK5 in human HepG2 cells by luciferase assay. Type of data set: cell-based.
Data set [4] in a line: Bioavailability in rat at 5 mg/kg, po. The following applies: in vivo. Format: ADME, organism-based.
For data set [5], the system named is Rattus norvegicus. As to the kind of experiment: Inhibition of dimethylnitreosamine-induced collagen IA1 mRNA expression in rat liver at 10 mg/kg, po bid. Type of data set: functional.
Data set [6] has as its system Rattus norvegicus. The data set is described as follows: Inhibition of dimethylnitreosamine-induced collagen IA1 mRNA expression in rat liver at 5 mg/kg, po bid. Format: functional.
Data set [7] in a line: AUC in rat at 5 mg/kg, po. Type of data set: ADME, organism-based. On the set-up: dose 5 mg/kg, route oral. The following applies: plasma.

The structures appear in SMILES notation.

Mitogen-activated protein kinase 14, sequence (Q16539 whole entry, the tested form may be a part): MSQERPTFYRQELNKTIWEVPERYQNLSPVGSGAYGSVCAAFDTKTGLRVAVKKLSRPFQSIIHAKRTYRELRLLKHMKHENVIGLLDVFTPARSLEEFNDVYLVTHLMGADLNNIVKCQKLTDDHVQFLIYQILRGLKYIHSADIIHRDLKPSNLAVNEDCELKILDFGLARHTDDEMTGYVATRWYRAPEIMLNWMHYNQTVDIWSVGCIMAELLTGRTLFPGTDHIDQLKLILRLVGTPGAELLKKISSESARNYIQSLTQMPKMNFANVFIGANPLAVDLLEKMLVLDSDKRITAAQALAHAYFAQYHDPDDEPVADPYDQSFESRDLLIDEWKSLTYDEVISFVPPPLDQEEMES

A word on the IC50: it is the concentration that gives 50% inhibition. With `Cc1cccc(-c2nc(Nc3ccc4[nH]ncc4c3)c3ccccc3n2)n1`, the values for the IC50 (in data set [1]; at TGF-beta receptor type-1 [2]; at TGF-beta receptor type-1 [3]) were over 10 µM, 0.025 µM and 0.09 µM, respectively.
In the same order, the values of `Cc1csc(-c2nc(Nc3ccncc3)c3ccccc3n2)n1` are over 15 µM, 0.02 µM and 0.342 µM.
In the same order, the values of `Cc1cccc(-c2nc(Nc3ccc4c(cnn4C)c3)c3ccccc3n2)n1` are over 10 µM, 0.588 µM and 0.794 µM.
Consider `Cc1cccc(-c2nc(Nc3ccc4ncsc4c3)c3ccccc3n2)n1`, for which the IC50 in data set [1] is over 10 µM; on TGF-beta receptor type-1 [2], 0.646 µM; against TGF-beta receptor type-1 [3], over 5 µM.
`Cc1cccc(-c2nc(C)cc(Nc3ccncc3)n2)n1`: the IC50 at TGF-beta receptor type-1 [2] turned out to be 0.093 µM; against TGF-beta receptor type-1 [3] it was 0.745 µM.
In the same order, the values of `Cc1cccc(-c2nc(Nc3ccncc3)c3sccc3n2)n1` are 0.022 µM and 0.06 µM.
As to `Cc1cc(Nc2nc(-c3cccc(C)n3)nc3ccccc23)ccn1`, the IC50 in data set [1] is over 10 µM; against TGF-beta receptor type-1 [2], 0.199 µM; against TGF-beta receptor type-1 [3] it was 1.02 µM.
For `Cc1cccc(-c2nc(Nc3ccc4[nH]nnc4c3)c3ccccc3n2)n1`, the figures for the IC50 (in data set [1]; against TGF-beta receptor type-1 [2]; on TGF-beta receptor type-1 [3]) were over 10 µM, 3.72 µM and over 5 µM, respectively.
The like results for `Cc1cccc(-c2nc(Nc3cccc(C(N)=O)c3)c3ccccc3n2)n1` were, in that order, over 10 µM, 0.263 µM and 0.545 µM.
`Cc1cccc(-c2nc(Nc3ccncc3)c3c(C)csc3n2)n1`: the IC50 was 0.016 µM against TGF-beta receptor type-1 [2] and 0.318 µM on TGF-beta receptor type-1 [3].
As to `c1ccc(-c2nc(Nc3ccncc3)c3ccccc3n2)cc1`, the IC50 in data set [1] was 1.27 µM; at TGF-beta receptor type-1 [2], 0.194 µM; against TGF-beta receptor type-1 [3] it was 2.47 µM.
One may read the bioavailability as the share of a dose that reaches the circulation, judged against a reference dose that is usually intravenous. Low readings indicate little systemic uptake, high ones much systemic uptake. In general, inhibition in vivo refers to the drop in the measured response relative to a control, in per cent. Low values mean little suppression, high ones strong suppression. A word on the AUC: it is the area under the concentration-time curve, a measure of exposure. Read a high AUC as high exposure. Regarding `Cc1cccc(-c2nc(Nc3ccncc3)c3ccccc3n2)n1`, the bioavailability in data set [4] was found to be 40%. Also, the IC50 in data set [1] is 6.72 µM; on TGF-beta receptor type-1 [2], 0.025 µM; against TGF-beta receptor type-1 [3], 0.095 µM. Moreover, the inhibition in vivo at 10 mg/kg in the data set with Rattus norvegicus [5] was found to be 73%. In the data set on Rattus norvegicus [6], this compound gave an inhibition in vivo at 5 mg/kg of 66%. In data set [7], the AUC was determined as 0.524 µg·h/mL.
Regarding `Clc1cccc(-c2nc(Nc3ccncc3)c3ccccc3n2)c1`, the IC50 in data set [1] is over 15 µM; at TGF-beta receptor type-1 [2] it was 0.049 µM; against TGF-beta receptor type-1 [3], 1.61 µM.
The like results for `Cc1cccc(-c2nc(Nc3ccncn3)c3ccccc3n2)n1` were, in that order, over 10 µM, 0.04 µM and 0.06 µM.
